In patent publication US8673909B2, “Indole compounds and methods for treating visceral pain” (NeurAxon, Inc., priority 2007, dated 2014):
Where a name gives a salt, the structure may show the parent alone. Read-outs that look alike come from different tables or passages of the source.

Legend:
[1] = target: T1, Nitric oxide synthase (neuronal, human recombinant) nNOS (Homo sapiens, UniProt P29475); assay: nNOS (human) enzyme assay, [3H]-L-arginine to L-citrulline; format: biochemical
T1 construct: purchased Axxora LLC ALX-201-068
Description: nNOS (Human), eNOS (Human) Enzyme Assay
Human nNOS and eNOS Protocol:
Procedure for Human nNOS and eNOS
Primary stock solutions of test compounds at a concentration of 6 mM are prepared. The primary stock solutions of each test compound are prepared freshly in distilled water on the day of study. […] Concentration range of test compound utilized for nNOS are 0.001 to 300 μM and for eNOS are 0.003 to 1000 μM. The vehicle of the test compound or inhibitor is used as blank control.
(§1) All incubations are performed in duplicate:
(§2) Prepare the reaction mixture on ice by adding the following components with a micropipette to a polypropylene microcentrifuge tube:
Total reaction volume is 60 μL.
(§3) Mix using a vortex mixer and incubate the above reaction mixture at 37° C. in an incubator for 30 minutes.
(§4) Add 400 μL of ice-cold Stop Buffer at the end of the incubation period to stop the reaction. (The EDTA in the Stop Buffer chelates all of the available calcium.)
(§5) Mix using a vortex mixer and transfer the reaction samples to spin cups and centrifuge using a microcentrifuge, at 13,000 rpm for 30 sec. at room temperature.
(§6) Remove the spin cups from the holder and transfer 450 μL of eluate (containing the unbound L-citrulline) to scintillation vials. Add 3 mL of scintillation fluid and quantify the radioactivity in a liquid scintillation counter.
Calculation of IC50 Values:
(§7) Data is analyzed using a Sigmoidal dose-response (variable slope) curve to determine the IC50 value of the test compound. Y=Bottom+(Top−Bottom)/(1+10^((Log IC50−X)*Hill Slope))

[2] = target: T2, Nitric oxide synthase (endothelial, human recombinant) eNOS (Homo sapiens, UniProt P29474); assay: eNOS (human) enzyme assay, [3H]-L-arginine to L-citrulline; format: biochemical
T2 construct: purchased Axxora LLC ALX-201-070
Description: Human nNOS and eNOS Protocol:
Procedure for Human nNOS and eNOS
Primary stock solutions of test compounds at a concentration of 6 mM are prepared. The primary stock solutions of each test compound are prepared freshly in distilled water on the day of study. […] Concentration range of test compound utilized for nNOS are 0.001 to 300 μM and for eNOS are 0.003 to 1000 μM. The vehicle of the test compound or inhibitor is used as blank control. […] The IC50 concentration of L-NAME was run in parallel as a control.
as §1, §2
Start the reaction by addition of the substrate (in 5 µL containing 1 μCi of [^3H]-L-Arginine+2.5 μM of unlabeled L-Arginine) to the reaction mixture. Total reaction volume is 60 μL.
as §3, §4, §5, §6
Calculation of IC50 Values:
as §7

5-HT1B = target: T3, 5-HT1B (Rattus norvegicus, UniProt P28564); assay: 5-HT1B binding assay (agonist radioligand), rat cerebral cortex
T3 construct: from tissue; host or cells: rat cerebral cortex
Description: 5-HT1D binding assays (agonist radioligand) were performed using bovine caudate membranes according to the methods of Heuring and Peroutka (J. Neurosci., 7: 894-903 (1987)). 5-HT1B (rat cerebral cortex) binding assays (agonist radioligand) were performed according to the method of Hoyer et. al. (Eur. J. Pharmacol., 118: 1-12 (1995)). For the purpose of result analysis, the specific ligand binding to the receptors is defined as the difference between the total binding and the nonspecific binding as determined in the presence of an excess of unlabelled ligand. The results are expressed as a percent of control specific binding obtained in the presence of the test compounds. IC50 values (concentration causing a half-maximal inhibition of control specific binding) and Hill coefficients (nH) were determined by non-linear regression analysis of the competition curves using Hill equation curve fitting and the inhibition constants (Ki) were calculated from the Cheng Prusoff equation (Ki=IC50/(1+(L/KD)), where L=concentration of radioligand in the assay, and KD=affinity of the radioligand for the receptor).

[3] = target: Recombinant human inducible NOS (iNOS) (Homo sapiens, UniProt P35228); assay: Human iNOS assay, radiometric; format: biochemical; settings: Table 10, human iNOS; read-out: iNOSh
Description: Recombinant human inducible NOS (iNOS) was produced in Baculovirus-infected Sf9 cells (ALEXIS). […] 15 μL of test substances are added to the mixture with the specific enzyme and pre-incubated at RT for 15 min. • 2. […] The incubation is carried out at 37° C. for 45 min. • 4. […] An aliquot 70 μL of the supernatant is added to 100 μL scintillation fluid. • 8.
The total volume of the reaction mixture is 150 μL in every well. All assays are performed at least in duplicate. Standard deviations are 10% or less.

5-HT1D = 5-HT1D (Bos taurus, UniProt F1MMU1); assay: 5-HT1D binding assay (agonist radioligand), bovine caudate membranes
Description: 5-HT1D binding assays (agonist radioligand) were performed using bovine caudate membranes according to the methods of Heuring and Peroutka (J. Neurosci., 7: 894-903 (1987)). 5-HT1B (rat cerebral cortex) binding assays (agonist radioligand) were performed according to the method of Hoyer et. al. (Eur. J. Pharmacol., 118: 1-12 (1995)). For the purpose of result analysis, the specific ligand binding to the receptors is defined as the difference between the total binding and the nonspecific binding as determined in the presence of an excess of unlabelled ligand. The results are expressed as a percent of control specific binding obtained in the presence of the test compounds.

[4] = system: rats with experimental pancreatitis; assay: Pancreatitis visceral pain model (DBTC), referred abdominal hypersensitivity, von Frey; format: in vivo, rat
Description: Adult male Sprague Dawley rats (Harlan, Indianapolis, Ind.), weighing 150-200 g were maintained in a climate-controlled room with ad lib food and water on a 12-h light/dark cycle (lights on at 07:00 hours). All procedures followed the policies of the International Association for the Study of Pain and the NIH guidelines for the handling and use of laboratory animals. Studies were approved by the University of Arizona IACUC.
Pancreatitis was produced by a tail vein injection of dibutyltin dichloride (DBTC, Aldrich, Milwaukee, Wis., 0.25 cc) dissolved in 100% ethanol at a dose of 8 mg/kg under isofluorane anesthesia (2-3 liters/min, 4.0%/vol until anesthetized, then 2.5%/vol throughout the procedure) (Vera-Portocarrero et al., 2006). Control animals were injected with the vehicle solution only (100% ethanol, 0.25 cc).
Referred abdominal hypersensitivity in the pancreatitis model was quantified by measuring the number of withdrawals events evoked by application of a calibrated von Frey filament (determined by either abdominal withdrawal, licking of the abdominal area, or whole body withdrawal). Rats were placed inside Plexiglas boxes on an elevated fine fiberglass screen mesh and acclimated for 30 minutes before testing. A 4 g von Frey filament was applied from underneath through the mesh floor, to the abdominal area at different points on the surface. […] The mean occurrence of withdrawal events in each trial is expressed as the number of responses to 10 applications as previously described (Vera-Portocarrero et al., 2003).
Significant differences between each experimental group for the behavioral test across time were detected by a two-factor ANOVA follow by the Fishers Least Significance Difference post-hoc test. One-factor ANOVA was used to detect significant differences in behavioral outcomes within each experimental group over time. A linear regression analysis was used to detect the dose-dependency of the effects. Significance was established at the p<0.05 level.

[5] = Table 11, bovine 1D receptor binding, read-out: 5HT1D
[6] = Table 15, read-out: IC50 in μM (Human eNOS)

T3 sequence (P28564 whole entry): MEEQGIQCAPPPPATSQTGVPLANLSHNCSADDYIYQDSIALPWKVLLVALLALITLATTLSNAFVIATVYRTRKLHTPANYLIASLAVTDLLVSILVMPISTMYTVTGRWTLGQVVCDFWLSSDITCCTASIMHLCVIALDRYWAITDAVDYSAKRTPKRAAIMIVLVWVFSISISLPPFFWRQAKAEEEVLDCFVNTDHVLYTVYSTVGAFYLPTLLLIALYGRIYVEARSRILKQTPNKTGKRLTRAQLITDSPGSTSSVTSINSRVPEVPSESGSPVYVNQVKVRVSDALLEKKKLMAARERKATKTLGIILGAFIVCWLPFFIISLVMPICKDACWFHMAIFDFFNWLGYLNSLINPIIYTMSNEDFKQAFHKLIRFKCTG
5-HT1D, sequence (F1MMU1 1-377): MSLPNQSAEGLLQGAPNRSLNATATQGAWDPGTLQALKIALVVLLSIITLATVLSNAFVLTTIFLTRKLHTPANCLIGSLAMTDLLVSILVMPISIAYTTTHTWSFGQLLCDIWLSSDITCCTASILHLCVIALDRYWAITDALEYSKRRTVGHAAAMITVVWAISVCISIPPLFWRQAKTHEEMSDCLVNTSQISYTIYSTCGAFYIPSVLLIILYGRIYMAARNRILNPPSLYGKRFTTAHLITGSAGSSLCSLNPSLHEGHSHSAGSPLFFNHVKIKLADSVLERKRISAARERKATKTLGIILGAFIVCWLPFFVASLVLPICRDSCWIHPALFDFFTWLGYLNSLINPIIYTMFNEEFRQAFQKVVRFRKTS
T2 sequence (P29474 whole entry): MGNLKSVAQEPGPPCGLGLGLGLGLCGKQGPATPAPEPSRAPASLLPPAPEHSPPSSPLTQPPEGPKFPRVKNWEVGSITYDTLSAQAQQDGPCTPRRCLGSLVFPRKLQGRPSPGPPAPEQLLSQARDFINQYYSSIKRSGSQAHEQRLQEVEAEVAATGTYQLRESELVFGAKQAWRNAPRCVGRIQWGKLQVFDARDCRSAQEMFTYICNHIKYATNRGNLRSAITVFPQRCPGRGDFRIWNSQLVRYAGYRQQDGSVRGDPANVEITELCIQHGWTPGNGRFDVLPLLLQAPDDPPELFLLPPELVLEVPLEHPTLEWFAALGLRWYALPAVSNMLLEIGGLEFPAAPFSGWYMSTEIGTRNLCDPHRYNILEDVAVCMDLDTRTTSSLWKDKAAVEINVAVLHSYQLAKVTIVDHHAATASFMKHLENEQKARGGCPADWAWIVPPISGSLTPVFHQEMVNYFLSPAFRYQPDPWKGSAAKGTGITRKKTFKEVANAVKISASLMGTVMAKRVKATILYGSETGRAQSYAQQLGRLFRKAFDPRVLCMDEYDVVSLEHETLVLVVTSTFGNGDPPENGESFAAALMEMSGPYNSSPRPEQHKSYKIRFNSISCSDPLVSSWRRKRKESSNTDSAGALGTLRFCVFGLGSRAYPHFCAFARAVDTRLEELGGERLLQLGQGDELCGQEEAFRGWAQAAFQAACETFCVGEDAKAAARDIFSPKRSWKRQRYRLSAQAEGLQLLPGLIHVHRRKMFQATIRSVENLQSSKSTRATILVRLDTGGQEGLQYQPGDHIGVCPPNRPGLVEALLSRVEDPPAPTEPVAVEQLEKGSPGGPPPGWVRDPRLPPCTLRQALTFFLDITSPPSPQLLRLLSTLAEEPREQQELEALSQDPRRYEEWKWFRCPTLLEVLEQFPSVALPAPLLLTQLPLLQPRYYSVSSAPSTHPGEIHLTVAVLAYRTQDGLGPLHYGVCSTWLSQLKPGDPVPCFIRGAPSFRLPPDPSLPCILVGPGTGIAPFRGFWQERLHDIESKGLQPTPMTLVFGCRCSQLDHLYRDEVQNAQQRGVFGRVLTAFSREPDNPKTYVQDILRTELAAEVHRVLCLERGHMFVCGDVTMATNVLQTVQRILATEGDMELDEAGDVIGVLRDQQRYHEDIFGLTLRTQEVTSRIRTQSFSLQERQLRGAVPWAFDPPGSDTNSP
T1 sequence (P29475 whole entry): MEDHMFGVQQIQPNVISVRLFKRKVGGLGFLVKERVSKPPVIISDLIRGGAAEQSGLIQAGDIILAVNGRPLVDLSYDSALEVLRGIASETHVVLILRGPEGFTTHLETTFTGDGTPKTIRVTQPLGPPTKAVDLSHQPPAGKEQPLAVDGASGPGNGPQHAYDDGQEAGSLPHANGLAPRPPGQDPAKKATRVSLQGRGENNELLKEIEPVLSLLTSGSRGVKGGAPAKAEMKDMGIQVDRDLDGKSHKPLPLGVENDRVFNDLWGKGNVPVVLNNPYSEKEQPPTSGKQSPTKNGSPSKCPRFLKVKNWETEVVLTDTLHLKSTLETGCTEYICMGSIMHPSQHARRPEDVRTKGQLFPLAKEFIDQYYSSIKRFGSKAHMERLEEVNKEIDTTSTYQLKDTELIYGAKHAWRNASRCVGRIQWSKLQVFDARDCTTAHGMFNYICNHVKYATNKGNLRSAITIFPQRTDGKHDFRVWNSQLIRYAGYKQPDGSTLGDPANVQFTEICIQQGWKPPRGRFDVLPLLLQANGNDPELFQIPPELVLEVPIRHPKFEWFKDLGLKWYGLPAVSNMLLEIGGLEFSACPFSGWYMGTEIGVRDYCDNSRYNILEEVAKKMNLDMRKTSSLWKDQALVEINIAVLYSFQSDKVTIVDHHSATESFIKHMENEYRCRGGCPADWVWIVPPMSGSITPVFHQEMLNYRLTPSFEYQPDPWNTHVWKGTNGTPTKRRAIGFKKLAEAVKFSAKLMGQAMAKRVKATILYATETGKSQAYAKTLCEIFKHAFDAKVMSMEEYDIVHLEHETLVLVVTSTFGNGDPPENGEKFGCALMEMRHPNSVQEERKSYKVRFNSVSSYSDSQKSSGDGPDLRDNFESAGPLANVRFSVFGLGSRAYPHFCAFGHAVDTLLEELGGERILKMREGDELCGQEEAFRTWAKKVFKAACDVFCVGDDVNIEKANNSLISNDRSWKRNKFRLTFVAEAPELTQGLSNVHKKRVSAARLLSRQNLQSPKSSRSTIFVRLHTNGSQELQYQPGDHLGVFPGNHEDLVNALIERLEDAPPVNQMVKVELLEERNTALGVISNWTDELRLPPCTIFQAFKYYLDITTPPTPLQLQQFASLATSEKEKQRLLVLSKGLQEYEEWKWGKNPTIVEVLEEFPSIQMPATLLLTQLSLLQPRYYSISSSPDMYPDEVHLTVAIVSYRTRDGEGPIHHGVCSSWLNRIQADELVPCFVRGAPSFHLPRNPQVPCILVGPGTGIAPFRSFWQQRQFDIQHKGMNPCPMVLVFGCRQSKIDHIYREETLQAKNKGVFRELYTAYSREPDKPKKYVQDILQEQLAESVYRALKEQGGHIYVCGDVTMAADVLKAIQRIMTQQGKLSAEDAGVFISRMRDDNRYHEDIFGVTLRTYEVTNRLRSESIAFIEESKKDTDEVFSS

In the case of `CCNC1CCC(c2c[nH]c3ccc(NC(=N)c4cccs4)cc23)C1` (mixture of isomers) [Compound 26, N-(3-(3-(ethylamino)cyclopentyl)-1H-indol-5-yl)thiophene-2-carboximidamide], the eNOS/nNOS ([1]; Table 15, selectivity ratio) is reported as 55.6.
In the case of `CN1CCC(c2c[nH]c3ccc(NC(=N)c4cccs4)cc23)C1` (racemic) [Compound 6, N-(3-(1-methylpyrrolidin-3-yl)-1H-indol-5-yl)thiophene-2-carboximidamide], the IC50 ([2]; Table 10, human eNOS, read-out: eNOSh) is reported as 38.7 µM, the IC50 (5-HT1B; Table 11, rat 1B receptor binding) is reported as 0.85 µM and the IC50 [3] is reported as 35 µM. For the same compound, the IC50 ([1]; Table 10, human nNOS, read-out: nNOSh) was 0.4 µM, the e/n ([1]; Table 10, ratio eNOS/nNOS) was 97 and the IC50 (5-HT1D; [5]) was 0.19 µM.
For `CNC1CCCC(c2c[nH]c3ccc(NC(=N)c4cccs4)cc23)C1` (racemic) [Compound (±)-20, N-(3-((1S,3R)-3-(Methylamino)cyclohexyl)-1H-indol-5-yl)thiophene-2-carboximidamide], the IC50 (5-HT1B; Table 14, read-out: 5HT 1B) was 20 µM and the IC50 (5-HT1D; read-out: 5HT 1D, Table 14) was 2.8 µM.
In the case of `CNC1CCCC(c2c[nH]c3ccc(NC(=N)c4cccs4)cc23)C1` (single isomer, unassigned) [Compound 20a, N-(3-(3-(methylamino)cyclohexyl)-1H-indol-5-yl)thiophene-2-carboximidamide dihydrochloride], the IC50 ([2]; Table 14, read-out: Human eNOS) is reported as 49.3 µM, the IC50 (5-HT1B; Table 14, read-out: 5HT 1B) is reported as 1.3 µM and the IC50 (5-HT1D; read-out: 5HT 1D, Table 14, listed as 20a (isomer-1), dihydrochloride) is reported as 3.2 µM.
`CNC1CCCC(c2c[nH]c3ccc(NC(=N)c4cccs4)cc23)C1` (single isomer, unassigned) [Compound 20b, N-(3-(3-(methylamino)cyclohexyl)-1H-indol-5-yl)thiophene-2-carboximidamide dihydrochloride] gave an IC50 ([2]; Table 14, read-out: Human eNOS) of 75 µM, an IC50 (5-HT1B; Table 14, read-out: 5HT 1B) of 12 µM and an IC50 (5-HT1D; read-out: 5HT 1D, Table 14, listed as 20b (isomer-2), dihydrochloride) of 1.4 µM.
For `CCN1CC=C(c2c[nH]c3ccc(NC(=N)c4cccs4)cc23)CC1` [Compound 19, N-(3-(1-ethyl-1,2,3,6-tetrahydropyridin-4-yl)-1H-indol-5-yl)thiophene-2-carboximidamide], the IC50 ([2]; Table 13, read-out: Human eNOS) was 68.4 µM, the eNOS/nNOS ([1]; Table 13, selectivity ratio) was 92.4 and the IC50 ([1]; Table 13, read-out: Human nNOS) was 0.74 µM.
`N=C(Nc1ccc2[nH]cc(C3=CCN(CCO)CC3)c2c1)c1cccs1` [Compound 24, N-(3-(1-(2-hydroxyethyl)-1,2,3,6-tetrahydropyridin-4-yl)-1H-indol-5-yl)thiophene-2-carboximidamide] was tested, and the IC50 [2, 6] was 74.1 µM, the eNOS/nNOS ([1]; Table 15, selectivity ratio) was 99 and the IC50 ([1]; Table 15, read-out: IC50 in μM (Human nNOS)) was 0.748 µM.
Work on `N=C(Nc1ccc2[nH]cc(CCN3CCCC3)c2c1)c1cccs1` [Compound 25, N-(3-(2-(pyrrolidin-1-yl)ethyl)-1H-indol-5-yl)thiophene-2-carboximidamide] yielded an IC50 [2, 6] of 9.92 µM, an IC50 ([1]; IC50 in μM (Human nNOS), Table 15) of 0.427 µM and an eNOS/nNOS ([1]; Table 15, selectivity ratio) of 23.2.
With `CN1CCC[C@@H]1Cc1c[nH]c2ccc(NC(=N)c3cccs3)cc12` [Compound 27, (R)—N-(3-((1-Methylpyrrolidin-2-yl)methyl)-1H-indol-5-yl)thiophene-2-carboximidamide] the “reversal of tactile allodynia in pancreatitis visceral pain model” value [4] was “reverts the tactile allodynia”.
For `CNS(=O)(=O)Cc1ccc2[nH]cc(CCN(C)C)c2c1` [Sumatriptan, reference compound], the IC50 (5-HT1D; [5]) was 0.059 µM.
